In US8883793B2, “Tubulin inhibitors and methods of using the same” (Development Center for Biotechnology, priority 2010, dated 2014):
pIC50: −log10 of the molar value.

Columns and labels:
U937 = test: MTS assay, U937; format: cell-based; conditions: Homo sapiens, U-937, 72 h, read-out: IC50 from MTS assay
Description: (§1) MTS assay was performed in determining the growth inhibition of cancer cells. MTS ((3-(4,5-dimethylthiazol-2-yl)-5-(3-carboxymethoxyphenyl)-2-(4-sulfophenyl)-2H-tetrazolium)), in the presence of phenazine methosulfate (PMS) and reductases, produces a formazan product that has an absorbance maximum at 490-500 nm. MTS assays (and closely related MTT assay) are commonly used to measure cell viabilities or survivals.
(§2) Briefly, KB/Hela, NCI-H460, A375, Colo205, HCT-116, U937, MCF-7, MDA-MB-231, A549, H1975 cells were seeded into 96-well plate at 4000, 4000, 2000, 2000, 2000 cells/well. After 24 h for attachment, test compound was added into each well and incubated for 72 h. A total of 20 μl of MTS reaction reagent containing the MTS (Promega, Madison, Wis.) and PMS in a ratio of 20:1 was added into each well to react with dehydrogenase enzyme in survival cells. After 3 h, the absorbance at 490 nm was monitored using Emax precision microplate reader (Molecular Devices, Sunnyvale, Calif.).

A375 = test: MTS assay, A375; format: cell-based; conditions: Homo sapiens, A-375, 72 h, read-out: IC50 from MTS assay
Description: as §1, §2

Colo205 = test: MTS assay, Colo205; format: cell-based; conditions: Homo sapiens, COLO 205, 72 h, read-out: IC50 from MTS assay
Description: as §1, §2

MDA-MB-231 = test: MTS assay, MDA-MB-231; format: cell-based; conditions: Homo sapiens, 72 h, read-out: IC50 from MTS assay
Description: as §1, §2

H1975 = test: MTS assay, H1975; format: cell-based; conditions: Homo sapiens, NCI-H1975, 72 h, read-out: IC50 from MTS assay
Description: as §1, §2

KB cell = test: MTS assay, growth inhibition of KB cells; format: cell-based; conditions: Homo sapiens, at 10 μM concentration, incubated for 72 h, read-out: Inhibition rate (%) (growth inhibition rate of MTS assay)
How it was run: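 KB cells were allowed 24 h to attach before a 72 h exposure to compound at 10 μM. Viability was measured by MTS/PMS reduction, with absorbance read at 490 nm after 3 h. Values are reported as percent growth inhibition.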

A549 = test: MTS assay, A549; format: cell-based; conditions: Homo sapiens, 72 h, read-out: IC50 from MTS assay
Description: as §1, §2

porcine brain tubulin = test: Tubulin polymerization assay; format: biochemical; conditions: at 10 μM concentration
Description: In vitro tubulin polymerization assay was performed by using the Tubulin Polymerization Assay Kit (Cytoskeleton, Inc., Denver, Colo.) in a 96-well format, which used the polymerization of porcine brain tubulin in vitro in the presence of varying concentrations of the test compounds. Fluorescence measurements were obtained at 1-minute intervals over a 31-minute period. Fluorescent measurements were performed using excitation at 365 nm, and emission was measured at 440 nm using a Packard Fusion Alpha Microplate Analyzer. Data were analyzed as relative fluorescent units by GraphPad Prism 5 Demo.

biotinylated tubulin = test: Colchicine competitive-binding assay; conditions: at 10 μM concentration, 3H-colchicine; for Inhibition rate (%) (colchicine competitive-binding): right column pair of Table 7
Description: The colchicine competitive-binding assay was done by using the Colchicine Site competitive Assay Kit (Cytoskeleton, Inc.), streptavidin-coated yttrium SPA beads(GE Healthcare, Inc.), and ^3H-colchicine(PerkinElmer, Inc.). Briefly, the binding mixture includes 1 μL^3H-labeled ligand (specific activity […]), and 1 μg biotinylated tubulin and 88 μg SPA beads in 200 μL assay buffer. The test compound and ^3H-labeled ligand were added before tubulin. After incubation at 37° C. for 2 hours, the SPA beads were allowed to settle down for 24 hours at room temperature, and scintillation counting was done on the TopCount Microplate Scintillation Counter.

Structure (SMILES) | Inhibition rate (%) (colchicine competitive-binding) (biotinylated tubulin) | inhibition at 10 µM (KB cell) | Inhibition rate (%) of tubulin polymerization (porcine brain tubulin) | further results
COc1ccc(Sc2cnc(NC(=O)CCc3cccnc3)s2)cc1 [Compound 70, N-[5-(4-Methoxy-phenylsulfanyl)-thiazol-2-yl]-3-pyridin-3-yl-propionamide] |  | 78.5% | 59.6% | pIC50 (U937): 7.63; pIC50 (A375): 7.46; pIC50 (Colo205): 7.17; pIC50 (MDA-MB-231): 6.74; pIC50 (H1975): 6.85; pIC50 (A549): 7.24; binding rate (%) (colchicine competitive-binding) (biotinylated tubulin; left column pair of Table 7): 92.9%
COc1ccc(Sc2ccc(NC(=O)CCc3ccccc3)nc2)cc1 [Compound 84, N-[5-(4-Methoxy-phenylsulfanyl)-pyridin-2-yl]-3-phenyl-propionamide] | 88.0% | 94.7% | 50.3% | 
Cc1ccc(CCC(=O)Nc2ccc(SCc3ccccc3)cn2)o1 [Compound 85, N-(5-Benzylsulfanyl-pyridin-2-yl)-3-(5-methyl-furan-2-yl)-propionamide] | 92.6% | 76.8% | 54.0% | 
Cc1ccc(CCC(=O)Nc2ncc(-c3ccccc3)cn2)o1 [Compound 92, 3-(5-Methyl-furan-2-yl)-N-(5-phenyl-pyrimidin-2-yl)-propionamide] | 94.7% | 97.1% | 74.0% | 
O=C(CCc1ccccc1)Nc1ncc(-c2ccccc2)cn1 [Compound 94, 3-Phenyl-N-(5-phenyl-pyrimidin-2-yl)-propionamide] | 82.9% | 97.4% | 55.2% | 
O=C(CCc1ccccc1)Nc1ncc(-c2ccc(F)cc2)cn1 [Compound 99, N-[5-(4-Fluoro-phenyl)-pyrimidin-2-yl]-3-phenyl-propionamide] | 78.3% | 95.8% | 55.8% | 
COc1cccc(-c2cnc(NC(=O)CCc3ccc(C)o3)nc2)c1OC [Compound 100, N-[5-(2,3-Dimethoxy-phenyl)-pyrimidin-2-yl]-3-(5-methyl-furan-2-yl)-propionamide] | 83.4% | 97.8% | 84.3% | 
COc1cccc(-c2cnc(NC(=O)CCc3ccccc3)nc2)c1OC [Compound 102, N-[5-(2,3-Dimethoxy-phenyl)-pyrimidin-2-yl]-3-phenyl-propionamide] | 59.2% | 94.5% | 58.6% | 

Now from value to molecule, other results behind:

Inhibition rate (%) (colchicine competitive-binding) (biotinylated tubulin) | Structure (SMILES) | inhibition at 10 µM (KB cell) | Inhibition rate (%) of tubulin polymerization (porcine brain tubulin) | further results
99.3% | Cc1ccc(CCC(=O)Nc2ncc(-c3ccc(F)cc3)cn2)o1 [Compound 105, N-[5-(4-Fluoro-phenyl)-pyrimidin-2-yl]-3-(5-methyl-furan-2-yl)-propionamide] | 96.7% | 72.2% | 
70.1% | Cc1ccc(CCC(=O)Nc2ncc(-c3ccc(N(C)C)cc3)cn2)o1 [Compound 106, N-[5-(4-Dimethylamino-phenyl)-pyrimidin-2-yl]-3-(5-methyl-furan-2-yl)-propionamide] | 84.6% | 69.3% | 
96.4% | Cc1ccc(CCC(=O)Nc2ccc(-c3ccccc3)cn2)o1 [Compound 111, 3-(5-Methyl-furan-2-yl)-N-(5-phenyl-pyridin-2-yl)-propionamide] | 65.1% | 72.7% | 
87.8% | Cc1ccc(CCC(=O)Nc2ccc(-c3ccc(F)cc3)cn2)o1 [Compound 112, N-[5-(4-Fluoro-phenyl)-pyridin-2-yl]-3-(5-methyl-furan-2-yl)-propionamide] | 96.2% | 76.9% | 
99.7% | Cc1ccc(CCC(=O)Nc2ncc(-c3ccccc3)cc2C)o1 [Compound 118, 3-(5-Methyl-furan-2-yl)-N-(3-methyl-5-phenyl-pyridin-2-yl)-propionamide] | 93% | 81.4% | 
97.5% | Cc1ccc(CCC(=O)Nc2ncc(-c3ccc(N(C)C)cc3)cc2C)o1 [Compound 120, N-[5-(4-Dimethylamino-phenyl)-3-methyl-pyridin-2-yl]-3-(5-methyl-furan-2-yl)-propionamide] | 85.9% | 51.8% | 
78.4% | Cc1ccc(CCC(=O)Nc2ccc(Br)cn2)o1 [Compound 123, N-(5-Bromo-pyridin-2-yl)-3-(5-methyl-furan-2-yl)-propionamide] | 95.8% | 85.6% | 
74.8% | Cc1ccc(CCC(=O)Nc2ncc(Br)cc2C)o1 [Compound 124, N-(5-Bromo-3-methyl-pyridin-2-yl)-3-(5-methyl-furan-2-yl)-propionamide] | 93.3% | 84.9% | 
